According to patent US20040110770A1, “Oxindoles which are inhibitors of CDK-1 and their application in therapeutics” (AVENTIS PHARMA SA, priority 2001, published 2004):
Like-named read-outs stand apart in the source and are kept apart here.

Legend:
HLF = test: cells; conditions: Homo sapiens, 288 h, read-out: IC50 inhibition of clonogenicity
Experimental: (§1) The Calc18 human tumour line is a gift from Professor G. Riou (Institut Gustave Roussy, Villejuif, France).
(§2) The cells in exponential growth phase are trypsinized, washed in PBS 1× and diluted to a final concentration of 5000 cells/ml in complete medium. The test products (in a volume of 50 μl) are added to 2.5 ml of suspension. […] The mixture is then immediately poured into Petri dishes and left at +4° C. for 5 minutes to solidify the agar.
(§3) The results are expressed as percentage of inhibition of the clonogenicity with respect to controls. The IC50 is determined graphically from the mean results determined for each concentration of compound.

HCT-8 = test: cells; conditions: Homo sapiens, HCT-8, 288 h, read-out: IC50 inhibition of clonogenicity
Experimental: as §1, §2, §3

PC-3 = test: cells; conditions: Homo sapiens, PC-3, 288 h, read-out: IC50 inhibition of clonogenicity
Experimental: as §1, §2, §3

HT-29 = test: cells; conditions: Homo sapiens, HT-29, 288 h, read-out: IC50 inhibition of clonogenicity
Experimental: as §1, §2, §3

Lovo = test: cells; conditions: Homo sapiens, 288 h, read-out: IC50 inhibition of clonogenicity
Experimental: as §1, §2, §3

Calc18 = test: cells; conditions: Homo sapiens, 288 h, read-out: IC50 inhibition of clonogenicity
Experimental: as §1, §2, §3

PC-14 = test: cells; conditions: Homo sapiens, PC-14, 288 h, read-out: IC50 inhibition of clonogenicity
Experimental: as §1, §2, §3

HLE = test: cells; conditions: Homo sapiens, 288 h, read-out: IC50 inhibition of clonogenicity
Experimental: as §1, §2, §3

HCT-116 = test: cells; conditions: Homo sapiens, HCT-116, 288 h, read-out: IC50 inhibition of clonogenicity
Experimental: as §1, §2, §3

C6 = test: cells; conditions: Rattus norvegicus, C6, 288 h, read-out: IC50 inhibition of clonogenicity
Experimental: as §1, §2, §3

HCT-8 cells = conditions: HCT-8, 48 hours
Experimental: The percentage of mitotic cells and of cells having apoptotic nuclear bodies is determined by examination and counting of a sample of at least 300 cells distributed over several points of the slide using a fluorescent microscope.

HCT-116 cells [1] = conditions: HCT-116, 1 μg/ml
Experimental: The HCT-116 cells are seeded in Nunc 6-well dishes.
The cells are treated with 30 μM BrDU for 30 minutes and then trypsinized. After fixing the cells in 1% paraformaldehyde for 16 hours, the latter are digested in pepsin/hydrochloric acid and then rinsed in PBS 1×. Immunolabelling is carried out with an anti-BrDU primary antibody (Becton Dickinson) and a GAM-FITC secondary antibody (Coulter). The DNA is subsequently labelled with propidium iodide in PBS comprising 1 mg/ml of boiled RNAse. This method makes it possible to count the cells in the G1, S and G2M phases.

HCT-116 cells [2] = test: cells; conditions: Homo sapiens, HCT-116, 96 h, read-out: HCT-116 IC50 (inhibition of proliferation)
Experimental: The HCT-116 cells are cultured as a layer in a culture flask in Dulbecco's medium comprising L-glutamine 2 mM, penicillin 200 U/ml, streptomycin 2 μg/ml, with the addition of 10% of heat-inactivated foetal calf serum.
The incorporation of the dye in the cell, which reflects cell growth, is evaluated by spectrophotometry at a wavelength of 540 nm for each sample using a Dynatech MR5000 reading device.
For each compound concentration tested, the results are expressed as percentage of inhibition of cell growth and are calculated from the untreated control and from the cell-free (blank) culture medium according to the following formula:
(Value compound−value blank/value cell control−value blank)×100.

[3] = test system: p34cdc2/cyclin B (CDK1/cyclin B); test: Inhibition of the p34cdc2/cyclin B activity (32P transfer from ATP to histone H1); assay type: biochemical, starfish or human recombinant
Experimental: The protein Histone H1 (type III-S) is obtained from Sigma. […] The reaction medium is prepared according to the following composition: 10 μl of enzymatic preparation are added to 5 μl of Histone H1 (5 mg/ml in buffer C) and to 7 μl of buffer C and mixed. 17.5 μl of the mixture are distributed in the tubes immediately before the test. 3 μl of inhibiting agent to be tested are added to each tube. The reaction is begun by the addition of 5 μl of the ATP solution, followed by incubating for 15 minutes at 30° C. The reaction is halted by the addition of 0.5 volumes of Laemli 3× buffer. […] The analysis and the quantification of the phosphorylation of the Histone H1 are carried out using an Instant-Imager device (Packard).

O=C1Nc2ccc(-c3cccnc3)cc2C1=Cc1cnc[nH]1 [Compound 1, 1,3-dihydro-3-(imidazol-4-ylmethylene)-5-(pyrid-3-yl)-2H-indolin-2-one]
IC50 (HLF): 1100 nM | IC50 (HCT-8): 1040 nM | IC50 (PC-3): 190 nM | IC50 (HT-29): 1420 nM | IC50 (Lovo): 900 nM | IC50 (Calc18): 1060 nM | IC50 (PC-14): 1100 nM | IC50 (HLE): 1200 nM | IC50 (HCT-116): 280 nM | IC50 (C6): 10800 nM | Apoptotic cells (%) (HCT-8 cells; 0.1 μg/ml): 8.5% | Apoptotic cells Factor/control (HCT-8 cells; 0.1 μg/ml): 3.5 | Mitotic cells (%) (HCT-8 cells; 0.1 μg/ml): 2.8% | Mitotic cells Factor/control (HCT-8 cells; 0.1 μg/ml): 0.4 | Apoptotic cells (%) (HCT-8 cells; 1 μg/ml): 16% | Apoptotic cells Factor/control (HCT-8 cells; 1 μg/ml): 6.6 | Mitotic cells (%) (HCT-8 cells; 1 μg/ml): 0.7% | Mitotic cells Factor/control (HCT-8 cells; 1 μg/ml): 0.1 | Apoptotic cells (%) (HCT-8 cells; 10 μg/ml): 42.5% | Apoptotic cells Factor/control (HCT-8 cells; 10 μg/ml): 17.7 | Mitotic cells (%) (HCT-8 cells; 10 μg/ml): 0.4% | Mitotic cells Factor/control (HCT-8 cells; 10 μg/ml): 0.06 | Cells in G1 phase (%) (HCT-116 cells [1]; contact time 4 h): 62.2% | Cells in G2-M phase (%) (HCT-116 cells [1]; contact time 4 h): 16.4% | Cells in S phase (%) (HCT-116 cells [1]; contact time 4 h): 20.1% | Cells in G1 phase (%) (HCT-116 cells [1]; contact time 24 h): 26.8% | Cells in G2-M phase (%) (HCT-116 cells [1]; contact time 24 h): 31.4% | Cells in S phase (%) (HCT-116 cells [1]; contact time 24 h): 39.5% | Cells in G1 phase (%) (HCT-116 cells [1]; contact time 48 h): 7.9% | Cells in G2-M phase (%) (HCT-116 cells [1]; contact time 48 h): 58.9% | Cells in S phase (%) (HCT-116 cells [1]; contact time 48 h): 30.9% | Cells in G1 phase (%) (HCT-116 cells [1]; contact time 72 h): 7.8% | Cells in S phase (%) (HCT-116 cells [1]; contact time 72 h): 5.1% | IC50 (HCT-116 cells [2]): 280 nM | CDK1 % inhibition at 10 μM [3]: 99%

CNC(=O)c1ccc2c(c1)C(=Cc1c[nH]cn1)C(=O)N2 [Compound 3, 1,3-dihydro-3-(imidazol-4-ylmethylene)-5-(N-methylcarboxamido)-2H-indolin-2-one]
CDK1 % inhibition at 10 μM ([3]; 10 μM): 100%

CC(=O)Nc1ccc2c(c1)C(=Cc1c[nH]cn1)C(=O)N2 [Compound 4, 1,3-dihydro-3-(imidazol-4-ylmethylene)-5-(acetylamino)-2H-indolin-2-one]
CDK1 % inhibition at 10 μM ([3]; 10 μM): 100%

O=C1Nc2ccc(Br)cc2C1=Cc1cnc[nH]1 [Compound 5-3]
CDK1 % inhibition at 10 μM ([3]; 10 μM): 100%

O=C1Nc2ccc([N+](=O)[O-])cc2C1=Cc1ccc[nH]1 [Compound 5-6]
CDK1 % inhibition at 10 μM ([3]; 10 μM): 91%

O=C1Nc2ccc(C(=O)c3cccs3)cc2C1=Cc1cnc[nH]1 [Compound 5-7]
CDK1 % inhibition at 10 μM ([3]; 10 μM): 100%

O=C1Nc2ccc([N+](=O)[O-])cc2C1=Cc1cnc[nH]1 [Compound 5-8]
CDK1 % inhibition at 10 μM ([3]; 10 μM): 81%

Cc1nc[nH]c1C=C1C(=O)Nc2ccc(-c3cccnc3)cc21 [Compound 5-10]
CDK1 % inhibition at 10 μM ([3]; 10 μM): 100%

Cc1nc[nH]c1C=C1C(=O)Nc2ccc(C(=O)O)cc21 [Compound 5-11]
CDK1 % inhibition at 10 μM ([3]; 10 μM): 100%

Cc1nc[nH]c1C=C1C(=O)Nc2ccc(S(N)(=O)=O)cc21 [Compound 5-12]
CDK1 % inhibition at 10 μM ([3]; 10 μM): 100%
